Data from patent publication US20230373934A1, “ANDROGEN RECEPTOR MODULATORS AND METHODS FOR THEIR USE” (ESSA Pharma, Inc., priority 2022, published 2023).

These molecules were tested against T1, androgen receptor (AR) (Homo sapiens, UniProt P10275) (assay: Androgen-induced PSA-luciferase assay, Luciferase Assay B (cells stably expressing ARR2PB or PSA-firefly luciferase reporter, 384-well)). Conditions: Luciferase Assay B (Compounds A186-A219 and A221-A245); stable luciferase reporter cells, 1 h pretreatment, R1881 24 h, serum-free; read-out: PSA-Luc IC50 Range.
T1 sequence (P10275 1-920 T878A): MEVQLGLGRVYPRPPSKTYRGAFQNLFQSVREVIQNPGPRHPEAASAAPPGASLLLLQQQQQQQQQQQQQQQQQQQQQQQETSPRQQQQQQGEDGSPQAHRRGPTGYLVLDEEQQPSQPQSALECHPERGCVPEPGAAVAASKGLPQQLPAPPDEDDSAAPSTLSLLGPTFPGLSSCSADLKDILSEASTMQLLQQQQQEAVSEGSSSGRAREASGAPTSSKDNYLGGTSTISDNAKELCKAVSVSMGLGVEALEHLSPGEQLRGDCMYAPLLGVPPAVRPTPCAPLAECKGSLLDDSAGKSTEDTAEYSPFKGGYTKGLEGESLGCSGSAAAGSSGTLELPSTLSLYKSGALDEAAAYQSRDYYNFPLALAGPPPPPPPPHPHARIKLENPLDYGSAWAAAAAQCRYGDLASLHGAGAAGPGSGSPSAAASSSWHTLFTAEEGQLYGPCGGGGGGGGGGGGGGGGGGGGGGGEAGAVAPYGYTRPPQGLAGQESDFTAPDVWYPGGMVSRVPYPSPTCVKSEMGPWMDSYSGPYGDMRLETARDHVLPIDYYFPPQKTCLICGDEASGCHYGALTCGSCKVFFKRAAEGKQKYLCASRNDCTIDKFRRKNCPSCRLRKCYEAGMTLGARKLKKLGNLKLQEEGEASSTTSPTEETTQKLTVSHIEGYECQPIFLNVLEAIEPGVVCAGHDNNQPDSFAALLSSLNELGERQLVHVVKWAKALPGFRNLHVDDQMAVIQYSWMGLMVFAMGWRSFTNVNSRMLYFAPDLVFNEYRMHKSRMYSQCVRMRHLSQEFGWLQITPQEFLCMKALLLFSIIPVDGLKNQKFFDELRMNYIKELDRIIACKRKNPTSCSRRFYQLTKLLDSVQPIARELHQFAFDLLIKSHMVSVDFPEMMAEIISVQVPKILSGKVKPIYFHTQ
Type: cell-based
Experimental: Luciferase Assay B: Cells stably expressing probasin promoter (ARR2PB) or human prostate-specific antigen (PSA)-firefly luciferase reporter were plated in poly-D-lysine-coated 384-well plates. 48 h after plating, cells were pretreated with vehicle or compounds for 1 h before adding R1881 under serum-free and phenol red-free conditions and then further incubated for 24 h. R1881 was added only for LNCaP cells. Firefly luciferase activities were determined by EnVision plate reader (Perkinemer) using the Steady-Glo Luciferase Reporter Assay System (Promega). Values were normalized to protein content. GraphPad Prism graphing software was used to calculate IC50 values. Luciferase Assay B was run for Compounds A186-A219 and A221-A245 in Table 2.
Statistical analyses were performed using GraphPad Prism (Version 6.01 for Windows; La Jolla, CA, USA). Comparisons between treatment and control groups were compared using Two-Way ANOVA with post-hoc Dunnett's and Tukey's tests. Differences were considered statistically significant at P values less than 0.05.

IC50 [nM]	Structure (SMILES)
500 to 2000	CS(=O)(=O)NCc1ccc(-c2ccc(Oc3cc(Cl)c(OC4CC4)c(C#N)c3)cc2)nn1 [Compound A214]
< 500	CS(=O)(=O)Nc1nccc(COc2ccc(N(CC(F)(F)F)c3cc(Cl)c(N4CCOCC4)c(C#N)c3)cc2)n1 [Compound A223]
< 500	CN(c1cnc2cc(-c3ccc(N(CC(F)(F)F)c4cnc(OC5CC5)c(C#N)c4)cc3)ccc2n1)S(C)(=O)=O [Compound A239]
< 500	CS(=O)(=O)Nc1nccc(COc2ccc(N(CC(F)(F)F)c3cc(Cl)c(OCCCl)c(C#N)c3)cc2)n1 [Compound A238]
500 to 2000	CS(=O)(=O)Nc1ncc(-c2ccc(Oc3cc(Cl)c(OC4CC4)c(C#N)c3)cc2)cn1 [Compound A196]
> 2000	CS(=O)(=O)Nc1cncc(N2CCN(c3ccc(Oc4cc(Cl)c(OC5CC5)c(C#N)c4)cc3)CC2)n1 [Compound A229]
500 to 2000	CC(C)(c1ccc(OCc2ccnc(N3CCOCC3)n2)cc1)c1cc(Cl)c(OC2CC2)c(C#N)c1 [Compound A201, 3-chloro-2-cyclopropoxy-5-(2-(4-((2-morpholinopyrimidin-4-yl)methoxy)phenyl)propan-2-yl)benzonitrile]
500 to 2000	CC(C)(c1ccc(OCc2ccnc(N3CCNCC3)n2)cc1)c1cc(Cl)c(OC2CC2)c(C#N)c1 [Compound A243]
500 to 2000	CS(=O)(=O)Nc1cnc2cc(-c3ccc(Oc4cnc(OC5CC5)c(Cl)c4)cc3)ccc2n1 [Compound A218]
> 2000	N#Cc1cc(Oc2ccc(-c3ccc4nc(NC5CS(=O)(=O)C5)cnc4c3)cc2)cc(Cl)c1OC1CC1 [Compound A216]
500 to 2000	CS(=O)(=O)Nc1ccc2nc(-c3ccc(Oc4cc(Cl)c(OC5CC5)c(C#N)c4)cc3)cnc2n1 [Compound A219]
> 2000	CS(=O)(=O)Nc1cc(=O)n2cc(-c3ccc(Oc4cc(Cl)c(OC5CC5)c(C#N)c4)cc3)ccc2n1 [Compound A211]
500 to 2000	CC(C)(c1ccc(-c2cnc(NS(C)(=O)=O)nc2)cc1)c1cc(Cl)c(OC2CC2)c(C#N)c1 [Compound A197]
500 to 2000	CS(=O)(=O)NC12CC(COc3ccc(N(CC(F)(F)F)c4cnc(OC5CC5)c(C#N)c4)cc3)(C1)C2 [Compound A234]
< 500	CC(=O)N1CCN(c2nccc(COc3ccc(N(CC(F)(F)F)c4cc(Cl)c(OC5CC5)c(C#N)c4)cc3)n2)CC1 [Compound A245]
< 500	CS(=O)(=O)Nc1nccc(N2CCN(c3ccc(Oc4cc(Cl)c(OC5CC5)c(C#N)c4)cc3)CC2)n1 [Compound A230]
500 to 2000	CN(c1cnc2cc(-c3ccc(Oc4cc(Cl)c(OC5CC5)c(C#N)c4)cc3)ccc2n1)S(C)(=O)=O [Compound A195]
500 to 2000	CS(=O)(=O)Nc1cncc(N2CC(c3ccc(Oc4cc(Cl)c(OC5CC5)c(C#N)c4)cc3)C2)n1 [Compound A232]
< 500	CS(=O)(=O)Nc1cnc2cc(-c3ccc(N(CC(F)F)c4cc(Cl)c(OC5CC5)c(C#N)c4)cc3)ccc2n1 [Compound A222]
> 2000	CS(=O)(=O)NC12CC(COc3ccc(Oc4cc(Cl)c(OC5CC5)c(C#N)c4)cc3)(C1)C2 [Compound A228, N-(3-((4-(3-chloro-5-cyano-4-cyclopropoxyphenoxy)phenoxy)methyl)bicyclo[1.1.1]pentan-1-yl)methanesulfonamide]
< 500	CC(=O)N1CCN(c2nccc(COc3ccc(C(C)(C)c4cc(Cl)c(OC5CC5)c(C#N)c4)cc3)n2)CC1 [Compound A244]

IC50 [nM]	Structure (SMILES)
> 2000	N#Cc1cc(Oc2ccc(-c3ccc4nc(N5CCOCC5)cnc4c3)cc2)cc(Cl)c1OC1CC1 [Compound A204]
< 500	CS(=O)(=O)NCc1nccc(COc2ccc(N(CC(F)(F)F)c3cc(Cl)c(OC4CC4)c(C#N)c3)cc2)n1 [Compound A221]
< 500	CS(=O)(=O)NC12CC(COc3ccc(N(CC(F)(F)F)c4cc(Cl)c(OC5CC5)c(C#N)c4)cc3)(C1)C2 [Compound A236, N-(3-((4-((3-chloro-5-cyano-4-cyclopropoxyphenyl)(2,2,2-trifluoroethyl)amino)phenoxy)methyl)bicyclo[1.1.1]pentan-1-yl)methanesulfonamide]
500 to 2000	CS(=O)(=O)NCc1ccc(-c2ccc(Oc3cc(Cl)c(OC4CC4)c(C#N)c3)cc2)cn1 [Compound A212]
500 to 2000	CC(=O)N1CCN(c2cnc3cc(-c4ccc(Oc5cc(Cl)c(OC6CC6)c(C#N)c5)cc4)ccc3n2)CC1 [Compound A242]
> 2000	Cn1nc(NS(C)(=O)=O)c2ccc(-c3ccc(Oc4cc(Cl)c(OC5CC5)c(C#N)c4)cc3)cc21 [Compound A209]
< 500	CS(=O)(=O)Nc1cc2ccc(-c3ccc(Oc4cc(Cl)c(OC5CC5)c(C#N)c4)cc3)cc2nn1 [Compound A192]
500 to 2000	N#Cc1cc(Oc2ccc(-c3ccc4nc(N5CCS(=O)(=O)CC5)cnc4c3)cc2)cc(Cl)c1OC1CC1 [Compound A206]
500 to 2000	CS(=O)(=O)Nc1cc2cn(Cc3ccc(Oc4cc(Cl)c(OC5CC5)c(C#N)c4)cc3)nc2cn1 [Compound A227]
500 to 2000	CS(=O)(=O)NCc1cnc2cc(-c3ccc(Oc4cc(Cl)c(OC5CC5)c(C#N)c4)cc3)ccc2n1 [Compound A207, N-((6-(4-(3-chloro-5-cyano-4-cyclopropoxyphenoxy)phenyl)quinoxalin-2-yl)methyl)methanesulfonamide]
> 2000	CNc1cnc2cc(-c3ccc(Oc4cc(Cl)c(OC5CC5)c(C#N)c4)cc3)ccc2n1 [Compound A200]
500 to 2000	CS(=O)(=O)Nc1cnc2cc(-c3ccc(Oc4cc(Cl)c(OCCC(F)(F)F)c(C#N)c4)cc3)ccc2n1 [Compound A189]
500 to 2000	N#Cc1cc(Oc2ccc(-c3ccc4nc(NC5CCS(=O)(=O)CC5)cnc4c3)cc2)cc(Cl)c1OC1CC1 [Compound A215]
500 to 2000	CS(=O)(=O)Nc1cnc2cc(-c3ccc(Nc4cc(Cl)c(OC5CC5)c(C#N)c4)cc3)ccc2n1 [Compound A226]
> 2000	CS(=O)(=O)NC12CC(COc3ccc(N(CC(F)(F)F)c4cnc(NC5CC5)c(C#N)c4)cc3)(C1)C2 [Compound A235]
> 2000	N#Cc1cc(Oc2ccc(-c3ccc4nc(N5CCNCC5)cnc4c3)cc2)cc(Cl)c1OC1CC1 [Compound A240]
500 to 2000	Cn1nc(NS(C)(=O)=O)c2cc(-c3ccc(Oc4cc(Cl)c(OC5CC5)c(C#N)c4)cc3)ccc21 [Compound A210]
< 500	CS(=O)(=O)Nc1cnc2cc(-c3ccc(N(CC(F)(F)F)c4cc(Cl)c(N5CCOCC5)c(C#N)c4)cc3)ccc2n1 [Compound A224, N-(6-(4-((3-chloro-5-cyano-4-morpholinophenyl)(2,2,2-trifluoroethyl)amino)phenyl)quinoxalin-2-yl)methanesulfonamide]
> 2000	CS(=O)(=O)Nc1cc2n(n1)CCN(c1ccc(Oc3cc(Cl)c(OC4CC4)c(C#N)c3)cc1)C2 [Compound A231]
> 2000	N#Cc1cc(Oc2ccc(-c3ccc4nc(N5CCNCC5)ncc4c3)cc2)cc(Cl)c1OC1CC1 [Compound A241]
500 to 2000	CN(c1ccc(OCc2ccnc(NS(C)(=O)=O)n2)cc1)c1cc(Cl)c(OC2CC2)c(C#N)c1 [Compound A237]
